Reference: patent publication US20030108526A1, “Microorganisms for use in the measurement of environmental factors” (priority 2001, published 2003)

B1: ZmHK1: maize cytokinin receptor, 974 amino acids, SEQ ID NO: 2 (protein)
chain: MGGKYRAARTKRWWRGLAAAGWVLTAVVCSAVMHWTLRRDSMDRAEERLVSMCEERARMLQEQFGVTVNHVHAIAILISTFNFEKSPPAIDQDTFAKYTARTSFERPLLNGVAFAQRVFHHEREMFESQQGWVMNTMQREPAPPQVEYAPVIFSQDTVSYLARIDMMSGEEDRENIFRARTTGKAVLTNPFRLLGSNHLGVVLTFAVYRPDLPADASVEQRVEATIGYLGGAFDVESLVENLLSKLAGNQDIVVNVYDVTNASDAMVLYGPSSLDEQVPFLHVSMLDFGDPFRKHEMRCRYRQKLPMPWSAITNPLGTFVIWMLLGYSIAAAYSRYDKVTEDCRKMEELKTQAEAADVAKSQFLATASHEIRTPMNGVLGMLDMLLGTDLTMTQKDYAQTAQMCGRALITLINDVLDRAKIEAGKLELEAVPFDLRSLMDDVVSLFSSKSREKCIELAVFVCDNVPKVVIGDPWRFRQILTNLVGNAVKFTERGHVFVRVCLAENSNMEANQVLHGAMNGKGGRVESTANGAFNTLSGFEAADRRNSWQYFKLLLSDKESLLDDLESENSNQSDSDRVTLAISIEDTGVGIPLQAQDRVFTPFMQADSSTSRNYGGTGIGLSISKCLAELMGGQISFTSHPSVGSTFTFSATLKHSHKDISGDSSRSLTEALPTAFKGMKAILVDGRPVRSAVTRYHLKRLGILLQVVNNMNAVVKAFPGQNGAAGSREKASILFIESDFWRPETDVQLLNHLREQKNGQLSDGHKVVLLVTSEADKDKYGSIFDIVMCKPIRASTIASSIQQLLKVEIAERKDNQNRPSFLRSLLVGKNILVVDDNKVNLRVAAAALKKYGANVSCVESGKDAISLLQPPHRFDACFMDVQMPEMDGFEATGQIRQMELKANEERKNKLASIEGSTTAEYHLPVLAMTADVIQATYEECIKSGMDGYVSKPFDEEQLYQAVSRLVVGTTDSAV
modifications: Zea mays

Assays:
AHK4 = AHK4 (Arabidopsis thaliana, UniProt Q9C5U0); details: experimental conditions of Example 4; Plant Cell Physiol 2001, 42: 107-113; cited from earlier work
AHK4, sequence (Q9C5U0 whole entry): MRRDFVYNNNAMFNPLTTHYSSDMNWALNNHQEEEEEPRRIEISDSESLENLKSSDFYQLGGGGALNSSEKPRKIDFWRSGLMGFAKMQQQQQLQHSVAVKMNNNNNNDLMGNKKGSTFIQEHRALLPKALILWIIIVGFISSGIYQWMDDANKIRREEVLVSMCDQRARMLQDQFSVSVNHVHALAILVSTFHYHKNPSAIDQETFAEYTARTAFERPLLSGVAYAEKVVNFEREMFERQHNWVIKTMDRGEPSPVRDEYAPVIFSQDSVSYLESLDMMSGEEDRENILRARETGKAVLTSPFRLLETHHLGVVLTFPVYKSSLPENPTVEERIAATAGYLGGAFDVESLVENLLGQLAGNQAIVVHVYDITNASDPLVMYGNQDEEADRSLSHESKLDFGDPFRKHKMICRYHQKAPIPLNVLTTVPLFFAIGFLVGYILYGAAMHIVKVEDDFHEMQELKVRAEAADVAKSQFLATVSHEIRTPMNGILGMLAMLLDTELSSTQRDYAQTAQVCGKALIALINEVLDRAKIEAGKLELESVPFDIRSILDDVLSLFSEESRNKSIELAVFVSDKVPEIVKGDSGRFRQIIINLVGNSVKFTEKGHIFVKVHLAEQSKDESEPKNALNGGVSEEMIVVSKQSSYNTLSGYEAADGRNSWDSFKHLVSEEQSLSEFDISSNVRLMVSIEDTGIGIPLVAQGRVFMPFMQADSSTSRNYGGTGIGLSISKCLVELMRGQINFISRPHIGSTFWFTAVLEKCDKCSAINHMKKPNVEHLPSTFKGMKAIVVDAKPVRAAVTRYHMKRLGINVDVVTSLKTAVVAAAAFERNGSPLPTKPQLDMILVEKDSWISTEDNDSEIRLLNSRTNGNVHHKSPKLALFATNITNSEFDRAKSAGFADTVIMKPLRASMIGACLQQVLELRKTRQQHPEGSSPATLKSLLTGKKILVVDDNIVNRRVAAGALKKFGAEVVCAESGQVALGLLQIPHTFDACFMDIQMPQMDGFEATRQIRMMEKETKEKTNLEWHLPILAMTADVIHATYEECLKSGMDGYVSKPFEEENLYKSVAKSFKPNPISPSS

ZmHK1 = experiment: Cytokinin sensor function and sensitivity of ZmHK1 in E. coli KMI001 (colony color on LAGX agar); format: cell-based, maize
Source text: The protein coding region of pZmHK1 was amplified by PCR and ligated to the BamHI/BSalI site of pIN-IIIΔEH plasmid. Primer sequences used in the PCR amplification are as described below.
Plasmid pIN-IIIΔEH has a promoter that constitutively directs weak expression of a foreign gene in E. coli. The resultant plasmid was designated pIN-III-ZmHK.
The constructed plasmid was transformed into E. coli KMI001 [ΔrcsC, cps::lacZ]. This E. coli strain is a strain in which cps gene involved in polysaccharide synthesis and a binary regulatory factor consisting of rcsC-rcsB (an expression regulatory system for cps) are partially modified. Specifically, sensor histidine kinase gene rcsC is deleted, and β-galactosidase (a marker gene) is inserted downstream of the promoter of cps gene. The resultant transformant was cultured in 2 ml of LAG liquid medium (1% Bacto tryptone, 0.5% Bacto yeast extract, 1% NaCl, 40 mM glucose, 50 mM phosphate buffer, pH 7.0) overnight at 25° C. The resultant culture broth was centrifuged and the supernatant was discarded. The E. coli cell pellet was washed twice in sterilized water and suspended in 2 ml (final volume) of sterilized water. This suspension was spotted at two points each on LAGX agar medium (1% Bacto tryptone, 0.5% Bacto yeast extract, 1% NaCl, 40 mM glucose, 50 mM phosphate buffer, pH 7.0, 80 μg/ml X-gal, 1.5% agarose) containing 1 μM trans-zeatin (t-zeatin) and on LAGX agar medium not containing t-zeatin, and cultured overnight (12 hr) at 25° C. The next day, the color of each colony was observed.
E. coli suspension was prepared in the same manner as in Example 4. Subsequently, the suspension was spotted on LAGX agar medium containing t-zeatin at varied concentrations from 0 nM to 1000 nM, and cultured overnight (12 hr) at 25° C. The next day, the color of each colony was observed.

[1] = test system: cps::lacZ (β-galactosidase) expression in E. coli KMI001; experiment: Examination of biosensor function: IPTG-induced sensor E. coli or its supernatant with receptor-transferred marker E. coli; format: cell-based, Escherichia coli; details: 1 mM IPTG, Examples 6 and 7
Source text: (§1) The next day, the color of each colony was observed.
as §1

Molecule	lowest t-zeatin concentration to which AHK4-transferred E. coli is able to respond (AHK4)	β-galactosidase expression of ZmHK1-transferred E. coli in response to the cytokinin in the medium (ZmHK1; 1 μM t-zeatin in LAGX agar, 12 hr, 25° C.)	t-zeatin concentration to which ZmHK1-transferred E. coli responds (ZmHK1; LAGX agar with 0 nM to 1000 nM t-zeatin, 12 hr, 25° C.) [µM]	Biosensor response (blue colony color) of receptor-transferred transformant to IPTG [1]	ability to perceive cytokinins compared to that of AHK4 (ZmHK1)	color development of transferred E. coli spot compared with AHK4-transferred E. coli spots (ZmHK1; FIG. 1, 1 μM t-zeatin)
C/C(=C\CNc1ncnc2nc[nH]c12)CO [t-zeatin, trans-zeatin]	approx. 50 nM	expressed β-galactosidase	≤ 10	–	–	–
AHK4: Arabidopsis thaliana cytokinin receptor (sensor protein)	–	–	–	did not present a blue color	–	–
B1	–	–	–	discriminated the presence or absence of a specific substance	approximately 10 fold	more intensive color development
